# Measurements published in patent US20040044006A1, “Methods of use of quinolone compounds against pneumococcal and haemophilus bacteria” (priority 1999, published 2004).
# Where two headings read alike, the source gives them in different places.
# Tests used:
# [1] = system: quinolone susceptible pneumococci (ciprofloxacin MICs ≦4.0 μg/ml); test: Agar dilution MICs of 207 quinolone susceptible pneumococcal strains; type: cell-based, Streptococcus pneumoniae; conditions: Streptococcus pneumoniae, agar dilution; for MIC90: read-out: MIC90; for MIC: read-out: MIC range
# Method in brief: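 Agar dilution MICs by prior methods on Mueller-Hinton agar with 5% sheep blood; S. pneumoniae ATCC 49619 among QC strains each run. Isolates were recent U.S. strains plus some from South Africa, Europe and Korea.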
# [2] = system: pneumococci with ciprofloxacin MICs ≧8 μg/ml; test: Quinolone agar dilution MICs of 28 ciprofloxacin resistant pneumococcal strains, correlated with QRDR mutations; type: cell-based, Streptococcus pneumoniae
# Experimental: Additionally these strains were tested for mutations in parC, gyrA, parE, and gyrB (Pan, et al. Antimicrob. Agents Chemother. 40:2321-2326, 1996) and for efflux mechanism (Brenwald, et ail., Antimicrob. Agents Chemother. 42:2032-2035, 1998).
# Gemifloxacin susceptibility powder was obtained from SmithKline Beecham Laboratories, Harlow, UK. Agar dilution methodology was performed on 28 strains as described previously (M. R. Jacobs, Clin. Infect. Dis. 15: 119-127, […] and M. R. Jacobs, Rev. Med. Microbiol. 6:77-93, 1995), using Mueller-Hinton altar (BBL Microbiology Systems, Cockeysville, Md.) supplemented with 5% sheep blood. Standard quality control strains, including Streptococcus pneumoniae ATCC 49619, were included in each run of agar dilution MICs.
# pneumococcal strains = test: Microbroth dilution MICs of strains tested by time-kill and PAE; type: cell-based; conditions: Streptococcus pneumoniae, read-out: Microdilution MIC
# Method in brief: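 S. pneumoniae ATCC 49619 served as control in each run. For the 12 time-kill and 6 PAE strains, MICs came from NCCLS microbroth dilution using cation-adjusted Mueller-Hinton broth plus 5% lysed defibrinated horse blood.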
# [3] = all 207 strains (64 penicillin susceptible, 68 intermediate, 75 resistant)
# [4] = agar dilution, 28 strains with ciprofloxacin MICs ≧8.0 μg/ml
compound,measurement,setting,value
"Cc1c(F)c(N2CCNC(C)C2)cc2c1c(=O)c(C(=O)O)cn2C1CC1 (stereo not drawn) [Grepafloxacin, grepafloxacin]",MIC50,[1]; Penicillin I strains,0.125 µg/mL
same,MIC90,[1]; Penicillin I strains,0.5 µg/mL
same,MIC,[1]; Penicillin I strains,0.03 to 0.5 µg/mL
same,MIC50,[1]; Penicillin R strains,0.25 µg/mL
same,MIC90,[1]; Penicillin R strains,0.5 µg/mL
same,MIC,[1]; Penicillin R strains,0.03 to 0.5 µg/mL
same,MIC50,[1]; Penicillin S strains,0.125 µg/mL
same,MIC90,[1]; Penicillin S strains,0.5 µg/mL
same,MIC,[1]; Penicillin S strains,0.03 to 1 µg/mL
same,MIC50,[1]; [3],0.125 µg/mL
same,MIC90,[1]; [3],0.5 µg/mL
same,MIC50,[2]; Streptococcus pneumoniae,4 µg/mL
same,MIC90,[2]; Streptococcus pneumoniae,8 µg/mL
same,MIC,"[2]; Streptococcus pneumoniae, read-out: MICs in strains with three or four QRDR mutations, 20 strains, bound holds in all 20 (ciprofloxacin, levofloxacin, sparfloxacin), 19 (grepafloxacin), 10 (trovafloxacin), 18 (gemifloxacin)",> 1 µg/mL
same,MIC,"[2]; Streptococcus pneumoniae, read-out: MICs in strains with three or four QRDR mutations, 21 strains, bound holds in all 21 (ciprofloxacin, levofloxacin, sparfloxacin), 20 (grepafloxacin), 11 (trovafloxacin), 19 (gemifloxacin)",≥ 1 µg/mL
same,MIC,"[2]; Streptococcus pneumoniae, strain 1, ParC S79-F, ParE I460-V, GyrA S81-F, GyrB None",4 µg/mL
same,MIC,"[2]; Streptococcus pneumoniae, strain 1, ParC S79-F, ParE I460-V, GyrA S83-F, GyrB None",4 µg/mL
same,MIC,"[2]; Streptococcus pneumoniae, strain 2, ParC S79-Y, ParE I460-V, GyrA None, GyrB None",0.5 µg/mL
same,MIC,"[2]; Streptococcus pneumoniae, strain 3, ParC D83-N, ParE I460-V, GyrA S81-F, GyrB None",0.5 µg/mL
same,MIC,"[2]; Streptococcus pneumoniae, strain 3, ParC D83-N, ParE I460-V, GyrA S83-F, GyrB None",0.5 µg/mL
same,MIC,"[2]; Streptococcus pneumoniae, strain 4, ParC S79-F, ParE I460-V, GyrA S81-F, GyrB None",1 µg/mL
same,MIC,"[2]; Streptococcus pneumoniae, strain 4, ParC S79-F, ParE I460-V, GyrA S83-F, GyrB None",1 µg/mL
same,MIC,"[2]; Streptococcus pneumoniae, strain 5, ParC R95-C, ParE D435-N, GyrA S81-F, GyrB None",1 µg/mL
same,MIC,"[2]; Streptococcus pneumoniae, strain 5, ParC R95-C, ParE D435-N, GyrA S83-F, GyrB None",1 µg/mL
same,MIC,"[2]; Streptococcus pneumoniae, strain 6, ParC S79-Y, ParE I460-V, GyrA E85-K, GyrB None",2 µg/mL
same,MIC,"[2]; Streptococcus pneumoniae, strain 6, ParC S79-Y, ParE I460-V, GyrA E87-K, GyrB None",2 µg/mL
same,MIC,"[2]; Streptococcus pneumoniae, strain 7, ParC None, ParE I460-V, GyrA None, GyrB None",1 µg/mL
same,MIC,"[2]; Streptococcus pneumoniae, strain 8, ParC S79-Y, ParE None, GyrA None, GyrB None",1 µg/mL
same,MIC,"[2]; Streptococcus pneumoniae, strain 9, ParC S79-Y, ParE None, GyrA None, GyrB None",1 µg/mL
same,MIC,"[2]; Streptococcus pneumoniae, strain 10, ParC S79-F, ParE I460-V, GyrA S81-C, GyrB None",2 µg/mL
same,MIC,"[2]; Streptococcus pneumoniae, strain 10, ParC S79-F, ParE I460-V, GyrA S83-C, GyrB None",2 µg/mL
same,MIC,"[2]; Streptococcus pneumoniae, strain 11, ParC S79-F, ParE I460-V, GyrA S81-F, GyrB None",4 µg/mL
same,MIC,"[2]; Streptococcus pneumoniae, strain 11, ParC S79-F, ParE I460-V, GyrA S83-F, GyrB None",4 µg/mL
same,MIC,"[2]; Streptococcus pneumoniae, strain 12, ParC S79-F, ParE I460-V, GyrA None, GyrB D435-N",4 µg/mL
same,MIC,"[2]; Streptococcus pneumoniae, strain 13, ParC S79-F, ParE I460-V, GyrA None, GyrB E474-K",2 µg/mL
same,MIC,"[2]; Streptococcus pneumoniae, strain 14, ParC S79-F, ParE I460-V, GyrA S81-F, GyrB None",4 µg/mL
same,MIC,"[2]; Streptococcus pneumoniae, strain 14, ParC S79-F, ParE I460-V, GyrA S83-F, GyrB None",4 µg/mL
same,MIC,"[2]; Streptococcus pneumoniae, strain 15, ParC 79-F, ParE I460-V, GyrA S83-F, GyrB None",4 µg/mL
same,MIC,"[2]; Streptococcus pneumoniae, strain 15, ParC S79-F, ParE I460-V, GyrA S81-F, GyrB None",4 µg/mL
same,MIC,"[2]; Streptococcus pneumoniae, strain 16, ParC S79-F, ParE I460-V, GyrA S81-F, GyrB None",4 µg/mL
same,MIC,"[2]; Streptococcus pneumoniae, strain 16, ParC S79-F, ParE I460-V, GyrA S83-F, GyrB None",4 µg/mL
same,MIC,"[2]; Streptococcus pneumoniae, strain 17, ParC D83-N, ParE None, GyrA S81-F, GyrB None",4 µg/mL
same,MIC,"[2]; Streptococcus pneumoniae, strain 17, ParC D83-N, ParE None, GyrA S83-F, GyrB None",4 µg/mL
same,MIC,"[2]; Streptococcus pneumoniae, strain 18, ParC S79-F, ParE I460-V, GyrA S81-F, GyrB None",4 µg/mL
same,MIC,"[2]; Streptococcus pneumoniae, strain 18, ParC S79-F, ParE I460-V, GyrA S83-F, GyrB None",4 µg/mL
same,MIC,"[2]; Streptococcus pneumoniae, strain 19, ParC S79-F, ParE I460-V, GyrA S81-F, GyrB None",4 µg/mL
same,MIC,"[2]; Streptococcus pneumoniae, strain 19, ParC S79-F, ParE I460-V, GyrA S83-F, GyrB None",4 µg/mL
same,MIC,"[2]; Streptococcus pneumoniae, strain 20, ParC S79-F, ParE I460-V, GyrA E85-K, GyrB None",4 µg/mL
same,MIC,"[2]; Streptococcus pneumoniae, strain 20, ParC S79-F, ParE I460-V, GyrA E87-K, GyrB None",4 µg/mL
same,MIC,"[2]; Streptococcus pneumoniae, strain 21, ParC S79-F, ParE I460-V, GyrA S81-F, GyrB None",4 µg/mL
same,MIC,"[2]; Streptococcus pneumoniae, strain 21, ParC S79-F, ParE I460-V, GyrA S83-F, GyrB None",4 µg/mL
same,MIC,"[2]; Streptococcus pneumoniae, strain 22, ParC S79-F, ParE I460-V, GyrA S81-Y, GyrB None",4 µg/mL
same,MIC,"[2]; Streptococcus pneumoniae, strain 22, ParC S79-F, ParE I460-V, GyrA S83-Y, GyrB None",4 µg/mL
same,MIC50,[2]; [4],4.0 µg/mL
same,MIC90,[2]; [4],8.0 µg/mL
same,MIC Range,[2]; [4],0.5 to 16.0 µg/mL
same,MIC Range,"[2]; agar dilution, 28 strains with ciprofloxacin MICs ≧8.0 μg/ml, listed as grepafloxacin",0.5 to 16 µg/mL
same,MIC,pneumococcal strains; strain 1 (S) penicillin susceptible,0.06 µg/mL
same,MIC,pneumococcal strains; strain 2 (S) penicillin susceptible,0.06 µg/mL
same,MIC,"pneumococcal strains; strain 3 (S) penicillin susceptible, quinolone-resistant",16 µg/mL
same,MIC,"pneumococcal strains; strain 4 (S) penicillin susceptible, quinolone-resistant",8 µg/mL
same,MIC,pneumococcal strains; strain 5 (I) penicillin intermediate,0.125 µg/mL
same,MIC,pneumococcal strains; strain 6 (I) penicillin intermediate,0.125 µg/mL
same,MIC,pneumococcal strains; strain 7 (I) penicillin intermediate,0.125 µg/mL
same,MIC,pneumococcal strains; strain 8 (I) penicillin intermediate,0.125 µg/mL
same,MIC,pneumococcal strains; strain 9 (R) penicillin resistant,0.25 µg/mL
same,MIC,pneumococcal strains; strain 10 (I),0.125 µg/mL
same,MIC,pneumococcal strains; strain 11 (R) penicillin resistant,0.125 µg/mL
same,MIC,pneumococcal strains; strain 12 (R) penicillin resistant,0.25 µg/mL
